In assay [1] the target is T1, recombinant GTase A41 (Arabidopsis thaliana, UniProt Q5XF20).
T1 construct: made in house; host or cells: E. coli
T1 sequence (Q5XF20 7-490): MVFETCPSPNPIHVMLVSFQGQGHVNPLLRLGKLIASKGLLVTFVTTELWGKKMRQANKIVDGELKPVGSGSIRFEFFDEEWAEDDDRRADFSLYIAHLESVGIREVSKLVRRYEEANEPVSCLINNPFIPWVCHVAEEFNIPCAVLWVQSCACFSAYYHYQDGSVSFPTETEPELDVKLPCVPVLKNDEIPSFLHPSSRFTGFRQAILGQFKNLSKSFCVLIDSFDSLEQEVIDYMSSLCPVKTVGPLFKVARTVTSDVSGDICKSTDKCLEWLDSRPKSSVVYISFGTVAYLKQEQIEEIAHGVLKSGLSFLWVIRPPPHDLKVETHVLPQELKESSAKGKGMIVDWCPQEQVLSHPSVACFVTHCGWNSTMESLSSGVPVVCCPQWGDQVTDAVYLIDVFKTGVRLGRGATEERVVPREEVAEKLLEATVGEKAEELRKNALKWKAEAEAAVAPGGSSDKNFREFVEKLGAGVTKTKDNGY
The assay is described as follows: Specific activity of recombinant GTase producing glucose ester against lignin precursors (HPLC). The class given is biochemical. The following applies: 5 mM UDPG, 0.2 μg GTase, 200 μl, 20° C., 30 min.

Assay [2] deals with T2, recombinant GTase A42 (Arabidopsis thaliana, UniProt O23401).
T2 construct: made in house; host or cells: E. coli
T2 sequence (O23401 1-479): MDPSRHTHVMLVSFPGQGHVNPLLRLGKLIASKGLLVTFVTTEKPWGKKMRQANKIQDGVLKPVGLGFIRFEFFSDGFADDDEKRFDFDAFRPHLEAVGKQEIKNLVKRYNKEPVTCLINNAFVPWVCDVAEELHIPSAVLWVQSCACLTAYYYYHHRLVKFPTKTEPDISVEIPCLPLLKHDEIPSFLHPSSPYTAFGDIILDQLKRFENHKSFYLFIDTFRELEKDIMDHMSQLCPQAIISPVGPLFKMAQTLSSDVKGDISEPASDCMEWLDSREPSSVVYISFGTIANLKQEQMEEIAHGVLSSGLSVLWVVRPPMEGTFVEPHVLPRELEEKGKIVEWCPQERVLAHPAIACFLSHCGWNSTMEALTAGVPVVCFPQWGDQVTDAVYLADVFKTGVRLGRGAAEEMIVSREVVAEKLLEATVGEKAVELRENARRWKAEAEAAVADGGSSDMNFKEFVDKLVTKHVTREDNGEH
The assay is described as follows: Kinetic studies (Michaelis-Menten) on recombinant GTase producing glucose esters. The class given is biochemical. The following applies: glucose ester formation.

Assay [3] concerns the target T3, recombinant GTase A911 (Arabidopsis thaliana, UniProt O22182).
T3 sequence (O22182 1-456): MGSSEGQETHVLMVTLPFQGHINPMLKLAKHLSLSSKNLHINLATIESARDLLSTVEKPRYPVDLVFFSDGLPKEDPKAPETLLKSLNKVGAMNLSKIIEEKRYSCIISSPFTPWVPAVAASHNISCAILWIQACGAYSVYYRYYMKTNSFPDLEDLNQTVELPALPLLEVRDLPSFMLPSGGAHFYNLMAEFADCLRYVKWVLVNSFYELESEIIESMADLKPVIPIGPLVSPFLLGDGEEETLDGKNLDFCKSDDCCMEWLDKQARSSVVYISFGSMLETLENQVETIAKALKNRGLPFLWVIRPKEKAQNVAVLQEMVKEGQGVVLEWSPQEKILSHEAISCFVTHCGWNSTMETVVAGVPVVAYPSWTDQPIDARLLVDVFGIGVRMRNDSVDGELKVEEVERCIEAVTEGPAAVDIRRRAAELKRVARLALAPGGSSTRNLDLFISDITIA
The description is as above. The following applies: glucose ester formation.

The target in assay [4] is T4, recombinant GTase A320 (Arabidopsis thaliana, UniProt Q9LVF0).
T4 construct: made in house; host or cells: E. coli
T4 sequence (Q9LVF0 1-496): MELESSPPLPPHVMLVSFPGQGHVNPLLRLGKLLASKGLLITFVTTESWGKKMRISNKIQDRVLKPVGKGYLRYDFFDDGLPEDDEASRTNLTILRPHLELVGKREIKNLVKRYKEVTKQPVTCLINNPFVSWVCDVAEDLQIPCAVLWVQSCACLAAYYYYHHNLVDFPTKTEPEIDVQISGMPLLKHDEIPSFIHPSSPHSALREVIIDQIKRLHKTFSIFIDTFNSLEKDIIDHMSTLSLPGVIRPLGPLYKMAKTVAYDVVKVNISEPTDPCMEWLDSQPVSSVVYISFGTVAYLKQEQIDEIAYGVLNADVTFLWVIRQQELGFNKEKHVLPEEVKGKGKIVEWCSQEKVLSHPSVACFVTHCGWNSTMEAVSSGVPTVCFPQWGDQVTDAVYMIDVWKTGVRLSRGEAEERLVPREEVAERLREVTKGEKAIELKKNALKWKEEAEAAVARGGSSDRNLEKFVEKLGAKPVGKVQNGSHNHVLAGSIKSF
The assay is described as follows: Specific activity of recombinant GTase producing glucose ester against lignin precursors (HPLC). The assay is classed as biochemical. The following applies: 5 mM UDPG, 0.2 μg GTase, 200 μl, 20° C., 30 min.

In assay [5] the target is T5, recombinant GTase A43 (Arabidopsis thaliana, UniProt O23402).
T5 construct: made in house; host or cells: E. coli
The description is as above. The class given is biochemical. The following applies: 0.5 ml of potential substrates, 5 mM UDPG, 0.2 μg GTase, 200 μl, 20° C., 30 min.

The target of assay [6] is T3, recombinant GTase A911. The assay is described as above. Details: made in house; host or cells: E. coli. The following applies: 0.5 ml of potential substrates, 5 mM UDPG, 0.2 μg GTase, 200 μl, 20° C., 30 min. The class given is biochemical.
For assay [7], the target named is T6, recombinant GTase A062 (Arabidopsis thaliana, UniProt Q9LR44).
T6 construct: made in house; host or cells: E. coli
T6 sequence (Q9LR44 1-469): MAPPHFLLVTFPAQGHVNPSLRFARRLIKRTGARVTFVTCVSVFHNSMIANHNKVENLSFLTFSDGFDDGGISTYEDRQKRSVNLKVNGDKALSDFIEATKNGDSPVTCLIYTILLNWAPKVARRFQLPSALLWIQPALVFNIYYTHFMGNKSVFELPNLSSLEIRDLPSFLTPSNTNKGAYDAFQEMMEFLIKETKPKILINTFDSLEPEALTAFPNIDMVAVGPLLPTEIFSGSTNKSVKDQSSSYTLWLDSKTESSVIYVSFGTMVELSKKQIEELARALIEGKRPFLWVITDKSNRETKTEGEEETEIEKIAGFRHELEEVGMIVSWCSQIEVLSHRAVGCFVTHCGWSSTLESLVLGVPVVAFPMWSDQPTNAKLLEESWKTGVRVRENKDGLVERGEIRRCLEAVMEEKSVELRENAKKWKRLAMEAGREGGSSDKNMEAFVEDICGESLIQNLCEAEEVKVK
Described as above. The assay is classed as biochemical. The following applies: 0.5 ml of potential substrates, 5 mM UDPG, 0.2 μg GTase, 200 μl, 20° C., 30 min.

Assay [8] deals with T2, recombinant GTase A42. The assay is described as above. The following applies: 0.5 ml of potential substrates, 5 mM UDPG, 0.2 μg GTase, 200 μl, 20° C., 30 min. The assay is classed as biochemical.

SMILES strings stand for the structures.

With `O=C(O)C=Cc1ccccc1` [Cinnamic acid, cinnamic acid], the “Specific activity of A41 (substrate converted to glucose ester)” value in assay [1] is on record as 0.30 nkat/mg. Besides, the “Vmax (A42)” value in assay [2] is 19.42 nkat/mg. In addition, the “Vmax (A911)” value in assay [3] is recorded as 9.06 nkat/mg. In assay [4], the “Specific activity of A320 (substrate converted to glucose ester)” value amounted to 0.06 nkat/mg. Further, the “Specific activity of A43 (substrate converted to glucose ester)” value in assay [5] was found to be 0.02 nkat/mg. Besides, in assay [6], the “Specific activity of A911 (substrate converted to glucose ester)” value was determined as 8.77 nkat/mg. Further, in assay [7], the “Specific activity of A062 (substrate converted to glucose ester)” value is 1.62 nkat/mg. The “Specific activity of A42 (substrate converted to glucose ester)” value in assay [8] is reported as 14.21 nkat/mg.

Source of the values: patent publication US7335814B2, “Transgenic cells expressing glucosyltransferase nucleic acids” (The University of York, priority 2000, dated 2008).
